Assay results published in patent US8124793B2, “Derivatives of ethylene methanedisulfonate as cancer chemotherapeutic agents” (priority 2007, dated 2012).

Columns and labels:
Format in all cases: cell-based
CCRF-CEM = experiment: NCI screen, growth of human tumor cells: Leukemia CCRF-CEM; settings: CCRF-CEM (Leukemia), 10^−4 molar
Method: (§1) In the NCI screening process, each compound was tested and described by a minimum of 60 data points. The test data include, but are not limited to the type of cancer, the molar concentration used in the screen, and the percent growth of the cancer. In some cases, NMR and elemental analysis were used for structural assignment.

K562 = experiment: NCI screen, growth of human tumor cells: Leukemia K562; settings: K562 (Leukemia), 10^−4 molar
Method: as §1

MOLT-4 = experiment: NCI screen, growth of human tumor cells: Leukemia MOLT-4; settings: MOLT-4 (Leukemia), 10^−4 molar
Method: as §1

NCI-H460 = experiment: NCI screen, growth of human tumor cells: Non-Small Cell Lung NCI-H460; settings: NCI-H460 (Non-Small Cell Lung), 10^−4 molar
Method: as §1

SF-268 = experiment: NCI screen, growth of human tumor cells: CNS Cancer SF-268; settings: SF-268 (CNS Cancer), 10^−4 molar
Method: as §1

SNB-19 = experiment: NCI screen, growth of human tumor cells: CNS Cancer SNB-19
Method: as §1

SF-539 = experiment: NCI screen, growth of human tumor cells: CNS Cancer SF-539; settings: SF-539 (CNS Cancer), 10^−4 molar
Method: as §1

SNB-75 = experiment: NCI screen, growth of human tumor cells: CNS Cancer SNB-75; settings: SNB-75 (CNS Cancer), 10^−4 molar
Method: as §1

U-251 = experiment: NCI screen, growth of human tumor cells: CNS Cancer U-251; settings: U-251 (CNS Cancer), 10^−4 molar
Method: as §1

UACC-62 = experiment: NCI screen, growth of human tumor cells: Melanoma UACC-62; settings: UACC-62 (Melanoma), 10^−4 molar
Method: as §1

ACHN = experiment: NCI screen, growth of human tumor cells: Renal Cancer ACHN; settings: ACHN (Renal Cancer), 10^−4 molar
Method: as §1

CAKI-1 = experiment: NCI screen, growth of human tumor cells: Renal Cancer CAKI-1; settings: CAKI-1 (Renal Cancer), 10^−4 molar
Method: as §1

human cancer cells = experiment: NCI screen summary over the cancers tested (negative growth of human cancer cells); settings: 10^−4 M conc.; cancers with negative growth / cancers tested
Method: as §1
The derivatives in the tables are grouped using the same category as in the tables 1-6.

HCT-116 = experiment: NCI screen, growth of human tumor cells: Colon Cancer HCT-116; settings: HCT-116 (Colon Cancer), 10^−4 molar
Method: as §1

LOXIMVI = experiment: NCI screen, growth of human tumor cells: Melanoma LOXIMVI; settings: LOXIMVI (Melanoma), 10^−4 molar
Method: as §1

PC-3 = experiment: NCI screen, growth of human tumor cells: Prostate Cancer PC-3; settings: PC-3 (Prostate Cancer), 10^−4 molar
Method: as §1

HOP-92 = experiment: NCI screen, growth of human tumor cells: Non-Small Cell Lung HOP-92; settings: HOP-92 (Non-Small Cell Lung), 10^−4 molar
Method: as §1

NCI-H522 = experiment: NCI screen, growth of human tumor cells: Non-Small Cell Lung NCI-H522; settings: NCI-H522 (Non-Small Cell Lung), 10^−4 molar
Method: as §1

NCI-H23 = experiment: NCI screen, growth of human tumor cells: Non-Small Cell Lung NCI-H23; settings: NCI-H23 (Non-Small Cell Lung), 10^−4 molar
Method: as §1

HCC-2998 = experiment: NCI screen, growth of human tumor cells: HCC-2998 (listed under Non-Small Cell Lung); settings: HCC-2998 (under Non-Small Cell Lung), 10^−4 molar
Method: as §1

COLO205 = experiment: NCI screen, growth of human tumor cells: Colon Cancer COLO205; settings: COLO205 (Colon Cancer), 10^−4 molar
Method: as §1

HCT-15 = experiment: NCI screen, growth of human tumor cells: Colon Cancer HCT-15; settings: HCT-15 (Colon Cancer), 10^−4 molar
Method: as §1

MALME-3M = experiment: NCI screen, growth of human tumor cells: Melanoma MALME-3M; settings: MALME-3M (Melanoma), 10^−4 molar
Method: as §1

SK-MEL-5 = experiment: NCI screen, growth of human tumor cells: Melanoma SK-MEL-5; settings: SK-MEL-5 (Melanoma), 10^−4 molar
Method: as §1

UACC-257 = experiment: NCI screen, growth of human tumor cells: Melanoma UACC-257; settings: UACC-257 (Melanoma), 10^−4 molar
Method: as §1

IGROVI = experiment: NCI screen, growth of human tumor cells: Ovarian Cancer IGROVI; settings: IGROVI (Ovarian Cancer), 10^−4 molar
Method: as §1

OVCAR-3 = experiment: NCI screen, growth of human tumor cells: Ovarian Cancer OVCAR-3; settings: OVCAR-3 (Ovarian Cancer), 10^−4 molar
Method: as §1

OVCAR-4 = experiment: NCI screen, growth of human tumor cells: Ovarian Cancer OVCAR-4; settings: OVCAR-4 (Ovarian Cancer), 10^−4 molar
Method: as §1

SN12C = experiment: NCI screen, growth of human tumor cells: Renal Cancer SN12C; settings: SN12C (Renal Cancer), 10^−4 molar
Method: as §1

DU-145 = experiment: NCI screen, growth of human tumor cells: Prostate Cancer DU-145; settings: DU-145 (Prostate Cancer), 10^−4 molar
Method: as §1

MCF 7 = experiment: NCI screen, growth of human tumor cells: Breast Cancer MCF 7; settings: MCF 7 (Breast Cancer), 10^−4 molar
Method: as §1

MCF7/ADR-RES = experiment: NCI screen, growth of human tumor cells: Breast Cancer MCF7/ADR-RES; settings: MCF7/ADR-RES (Breast Cancer), 10^−4 molar
Method: as §1

BT-549 = experiment: NCI screen, growth of human tumor cells: Breast Cancer BT-549; settings: BT-549 (Breast Cancer), 10^−4 molar
Method: as §1

HS 578T = experiment: NCI screen, growth of human tumor cells: Breast Cancer HS 578T; settings: HS 578T (Breast Cancer), 10^−4 molar
Method: as §1

MDA-MB-435 = experiment: NCI screen, growth of human tumor cells: Breast Cancer MDA-MB-435; settings: MDA-MB-435, 10^−4 molar
Method: as §1

## CC1S(=O)(=O)OCCOS1(=O)=O [NSC 372239]
CCRF-CEM
  percent of growth of human tumor cells: −6%
K562
  percent of growth of human tumor cells: 12%
MOLT-4
  percent of growth of human tumor cells: 12%
NCI-H460
  percent of growth of human tumor cells: 2%
SF-268
  percent of growth of human tumor cells: 29%
SNB-19; SNB-19 (CNS Cancer), 10^−4 molar
  percent of growth of human tumor cells: 26%
SF-539
  percent of growth of human tumor cells: 28%
SNB-75
  percent of growth of human tumor cells: 28%
U-251
  percent of growth of human tumor cells: 16%
UACC-62
  percent of growth of human tumor cells: −14%
ACHN
  percent of growth of human tumor cells: 20%
CAKI-1
  percent of growth of human tumor cells: 20%
Human cancer cells
  Percentage of cancers showing negative growth cancers tested: 2/12 = 17%

## O=S(=O)([O-])OCCCC1S(=O)(=O)OCCOS1(=O)=O.[Na+] [NSC 674994, butane-1-[hydroxyhydrogensulfate]-4,4-[ethylenedisulfonate]]
SNB-19; SNB-19, 10^−4 molar
  % Growth: 36%
SNB-19; SNB-19, 10^−5 molar
  % Growth: 45%
SNB-19; SNB-19, 10^−6 molar
  % Growth: 47%
SNB-19; SNB-19, 10^−7 molar
  % Growth: 73%
SNB-19; SNB-19, 10^−8 molar
  % Growth: 67%
Human cancer cells
  Percentage of cancers showing negative growth cancers tested: 10^−4 M conc. = 0/1 = 0%

## O=S1(=O)OCCOS(=O)(=O)[C-]1S(=O)(=O)c1cccc2ccccc12.[Na+] [NSC 679044]
K562
  percent of growth of human tumor cells: 15%
HCT-116
  percent of growth of human tumor cells: −52%
LOXIMVI
  percent of growth of human tumor cells: 23%
PC-3
  percent of growth of human tumor cells: 23%
Human cancer cells
  Percentage of cancers showing negative growth cancers tested: 10^−4 M conc. = 1/4 = 25%

## CCOCC1(CC2=C(C)C(=O)c3ccccc3C2=O)S(=O)(=O)OCCOS1(=O)=O [NSC 698124]
HOP-92
  percent of growth of human tumor cells: 27%
NCI-H522
  percent of growth of human tumor cells: −45%
NCI-H460
  percent of growth of human tumor cells: 11%
NCI-H23
  percent of growth of human tumor cells: 16%
HCC-2998
  percent of growth of human tumor cells: 8%
COLO205
  percent of growth of human tumor cells: −25%
HCT-15
  percent of growth of human tumor cells: 15%
SF-268
  percent of growth of human tumor cells: 20%
SNB-75
  percent of growth of human tumor cells: 11%
U-251
  percent of growth of human tumor cells: 20%
LOXIMVI
  percent of growth of human tumor cells: −55%
MALME-3M
  percent of growth of human tumor cells: −9%
SK-MEL-5
  percent of growth of human tumor cells: 9%
UACC-257
  percent of growth of human tumor cells: 12%
UACC-62
  percent of growth of human tumor cells: −32%
IGROVI
  percent of growth of human tumor cells: 6%
OVCAR-3
  percent of growth of human tumor cells: −17%
OVCAR-4
  percent of growth of human tumor cells: 14%
SN12C
  percent of growth of human tumor cells: −25%
DU-145
  percent of growth of human tumor cells: 27%
MCF 7
  percent of growth of human tumor cells: 19%
MCF7/ADR-RES
  percent of growth of human tumor cells: 30%
BT-549
  percent of growth of human tumor cells: 27%
HS 578T
  percent of growth of human tumor cells: 27%
MDA-MB-435
  % Growth: −74%
Human cancer cells
  Percentage of cancers showing negative growth cancers tested: 10^−4 M conc. = 8/25 = 32%
